Laboratory results taken from patent US20250352608A1, “POLYPEPTIDES HAVING ANTI-INFLAMMATORY EFFECTS AND USES THEREOF” (OneSkin, Inc., priority 2020, published 2025).
“Also recorded” adds a separate entry of the source. Ends that are not written are not given here.

How the values were obtained:
[1] = test system: fibroblasts; test: SA B-galactosidase staining after UVB (Example 8); format: cell-based, human; conditions: 48 hours after 2 x 0.05 J/cm^2
Procedure: (§1) In order to shed light into the mechanism of action of Peptide 14 and similar Peptide 13, Akt S473 phosphorylation (FIG. 8, panel A), senescence associated β-galactosidase staining (FIG. 8, panel B), as well as mRNA expression (FIG. 8, panel C) were investigated. For Akt S473 phosphorylation analysis using western blotting, human primary fibroblasts and keratinocytes were used. These cells were used to build human skin equivalents, which were kept in a 5% CO2, 37° C. and 95% humidity atmosphere air liquid interface. Then, skin equivalents were treated with 1p M of either Peptide 14 or Peptide 13 for 5 days, and protein analysis was performed on the skin equivalents. Protein was isolated and quantified. Equal amounts of protein were loaded in polyacrylamide gels and transferred into a nitrocellulose membrane. […] Relative pAkt S473/GAPDH signal was compared between treated and non-treated samples. For senescence associated B-galactosidase staining experiments, fibroblasts were used. […] Total RNA was isolated, samples were reverse transcribed, and mRNA expression of GAPDH, sirtuin 6 (SIRT6), BLM, and exonuclease 1 (EXO1) genes were determined using qPCR. […] CT values were analyzed using the 2^−ΔΔCt method. […] Data was analyzed using a T-test. Statistical significance was determined as p values equal or lower than 0.05 (FIG. 8).

[2] = test system: pAkt S473; test: Akt S473 phosphorylation western blot in skin equivalents; format: cell-based, human; conditions: 1p M, 5 days
Procedure: as §1

[3] = test system: 3D skin equivalent (elder donors); test: Relative mRNA expression in 3D skin equivalents versus Retinoic Acid; format: cell-based, human; conditions: 1p M peptide vs 20 μM Retinoic Acid
Procedure: 3D skin equivalent sections of samples built with cells from elder donors ([…]) were treated with 1p M Peptide 14 or Peptide 13, or 20 μM Retinoic Acid (RA) and assessed for the effect of the various treatments of various markers of senescence, aging, and health.
Data are presented as 2-ddCt normalized to GAPDH and untreated control. *p<0.05. Peptide 13 and Peptide 14-treated samples generally had similar relative mRNA expression levels for p16, BLIMP1, ZYG11B, IL-8, and Ki-67 in the epidermal layer, and for p16, MMP1, HAS2, IL-8, and Ki-67 in the dermal layer. Peptide 13 and Peptide 14-treated samples generally had lower relative mRNA expression levels than RA-treated samples for p16, BLIMP1, ZYG11B, IL-8, in the epidermal layer and for p16, MMP1, IL-8, and Ki-67 in the dermal layer. Peptide 13 and Peptide 14-treated samples generally had higher relative mRNA expression levels than RA-treated samples for Ki-67 in the epidermal layer and for HAS2 for the dermal layer. Peptide 13 and Peptide 14-treated samples had similar relative mRNA expression levels as RA-treated samples for ZIC1 and Ki-67 for dermal layer.

[4] = test system: human skin equivalents (donors); test: Histology score of human skin equivalents (Example 16); format: cell-based; conditions: 0.01% w/v (or 1 μM), 5 days; control 21.00
Procedure: To test the effect of Peptide 13 and Peptide 14 treatment on human skin models and the skin morphology, human primary fibroblasts and keratinocytes isolated from healthy elder donors were used to build human skin equivalents. The skin equivalents were treated with 0.01% w/v (or 1 μM) of Peptide 13 or Peptide 14 for 5 days. The negative controls were treated with formulation only. After the 5-day culture, the skin equivalents were analyzed for epidermal thickness, which was quantified according to total epidermal area. Quality assessment based several parameters was performed by blind analysts. […] A minimal score of 19 was required for batch use. This score was validated internally and shown to decrease with age/senescence of the skin equivalents or cultured cells. Three independent experiments were performed with three technical replicates. Data were analyzed using a t-test. Statistical significance was determined as p-values equal or lower than 0.05. The statistically significant p-values are noted by * for p<0.05; ** for p<0.01; *** for p<0.001; **** for p<0.0001 between the groups.

[5] = test system: human primary fibroblasts isolated from 3 healthy donors; test: UVB-induced senescence; format: cell-based; conditions: 5 μM, 48 hours
Procedure: Cellular senescence may be caused by several different stimuli. In order to assess whether Peptide 14 was effective against UVB-induced and chemically-induced senescence, human primary fibroblasts isolated from 3 healthy donors were used. These cells were cultured in DMEM (Dulbecco's Modified Eagle's Medium) supplemented with 10% v.v. fetal bovine serum (FBS), and 1% v.v. of penicillin/streptomycin solution (1,000 U mL-1). Cells were kept in a 5% CO2, 37° C. and 95% humidity atmosphere. After expansion, these cells were seeded in 96-well plates (4,000 cells per well) and, 6 hours after plating, were submitted to either etoposide (20 μM) treatment for 24 hours, or exposed twice to 0.05 J/cm^2 of UVB radiation. […] After incubation, relative cellular senescence (assessed by the activity of senescence associated β-galactosidase staining relative to untreated control) was analyzed and plotted in column graphs. ATRX foci were also assessed following ATRX immunofluorescence staining. Graphs were built using the average ATRX foci detected per nuclei. […] Data was analyzed using with either t-test or ANOVA followed by a Bonferroni post-hoc test. Statistical significance was determined as p-values equal or lower than 0.05 (FIG. 6).

[6] = test system: Human primary fibroblasts isolated from 3 healthy chronologically aged (elder) donors; test: 3-week exposure: senescence and proliferation; format: cell-based; conditions: 3.12 μM, days 7-28
Procedure: Human primary fibroblasts isolated from 3 healthy chronologically aged (elder) donors were used. These cells were cultured in DMEM (Dulbecco's Modified Eagle's Medium) supplemented with 10% v.v. fetal bovine serum (FBS), and 1% v.v. of penicillin/streptomycin solution (1,000 U·mL-1). Cells were kept in a 5% CO2, 37° C. and 95% humidity atmosphere. After expansion, these cells were seeded in T-75 flasks (250,000 cells per flask) and, 6 hours after plating, were incubated for 3 weeks (21 days) with Peptide 14 at 3.12 μM. A negative control comprised untreated cells, which received vehicle only. Day 0 was defined as the day cells started to be treated with Peptide 14. No Peptide 14 treatment was performed between days 21 and 28. Weekly, cellular senescence was assessed according to senescence associated β-galactosidase staining levels. Data was normalized to untreated group and plotted (FIG. 4, panel A). Cellular proliferation was also determined weekly. At days 7, 14, 21, and 28, cells were trypsinized and counted (FIG. 4, panel B). After counting, 250,000 cells were plated in new T-75 flasks. Three independent experiments (biological replicates) including three technical replicates were performed. Data was analyzed using T-test. Statistical significance was determined as p values equal or lower than 0.05.

[7] = test system: peripheral blood mononuclear cells (PBMCs); test: PBMC viability / toxicity (MTT); format: cell-based, human; conditions: 1.56 μM to 150 μM
Procedure: T cells may be involved in inflammation of various skin disorders. […] This study was approved by an IRB board. PBMCs were obtained from healthy volunteers. After isolation, the PBMCs were maintained in 96 wells and treated with different concentrations of Peptide 14 (1.56 μM to 150 μM) in order to assess toxicity of Peptide 14 to the PBMCs.
The viability and proliferation of PBMCs were analyzed by MTT assay. Briefly, after 5 days of treatment, the cells were incubated with […] MTT reagent for 4 hours. Then, 100 μL of DMSO was added into each well, and the absorbance was detected at 595 nm. Data was presented as percentage of proliferation/viability normalized to the negative control of untreated PBMCs (100% viability/proliferation).

[8] = test system: Caenorhabditis elegans; test: C. elegans healthspan and lifespan; format: in vivo; conditions: at the concentrations tested (1 μM, 2 μM)
Procedure: Senotherapeutic strategies can be linked to healthspan and lifespan extension in vivo. In order to assess whether Peptide 14 promotes extended healthspan and lifespan, Caenorhabditis elegans worms were used. Peptide 14 was added in the worm media (M9 buffer media) at different concentrations of 1 μM or 2 μM. Negative control worms received vehicle only. Two healthspan parameters were assessed i) pharyngeal pumping and ii) worm movement. Lifespan was also determined. For pharyngeal pumping analysis, 15 worms had their pharynx movement (pumping) observed daily and counted for 20 seconds. This experiment was repeated 3 times, by 2 different blind observers, employing different populations of animals at different days. Statistical difference was detected by analyzing each individual time point by One-Way ANOVA and Dunnet's post hoc test. All groups were compared with the H2O group. For worm movement analysis, the basic movement of C. elegans, also called thrashing, was measured daily for 15 worms. […] Statistical difference was detected by analyzing each individual time point by One-Way ANOVA and Dunnet's post hoc, and all groups were compared with the H2O group. […] The average lifespan was measured. Statistical difference was detected by analyzing each individual time point by One-Way ANOVA and Dunnet's post hoc, and all groups were compared with the H2O group (FIG. 15).

[9] = test system: U-937 macrophages; conditions: 3.12 μM, absence or presence of 0.5 μg/mL LPS
Description: In some cases, monocytes and macrophages may be involved in inflammation of various skin disorders. In order to assess the effect of Peptide 14 on inflammation, an in vitro model of inflammation using monocytes and macrophages was used to study the effect of direct culture of the Peptide 14 with such cells. Cells from the U-937 cell line (Banco de Células do Rio de Janeiro—BCRJ cat. 0242) were used for experiments. According to BCRJ, the U-937 cell line was derived by Sundstrom and Nilsson in 1974 from malignant cells obtained from the pleural effusion of a patient with histiocytic lymphoma. Also, studies since 1979 have shown that U-937 cells can be induced to terminal monocytic differentiation by supernatants from human mixed lymphocyte cultures or phorbol myristic acid (PMA) stimulation.

ATAKAWLKGI [Peptide 13] was tested, and the “SA B-galactosidase staining in UVB-exposed samples” value [1] was “decreased staining”, the “pAkt S473, dermal samples” value [2] was “decreased” and the “relative mRNA BLIMP1, epidermal layer, vs RA-treated samples” value [3] was “lower”. For the same sequence, the “relative mRNA HAS2, dermal layer, vs RA-treated samples” value [3] was “higher”, the “relative mRNA IL-8, dermal layer, vs RA-treated samples” value [3] was “lower” and the “relative mRNA IL-8, epidermal layer, vs RA-treated samples” value [3] was “lower”. For the same sequence, the “relative mRNA Ki-67, dermal layer, vs RA-treated samples” value [3] was “lower; also recorded: similar”, the “relative mRNA Ki-67, epidermal layer, vs RA-treated samples” value [3] was “higher” and the “relative mRNA MMP1, dermal layer, vs RA-treated samples” value [3] was “lower”. For the same sequence, the “relative mRNA ZIC1 vs RA-treated samples” value [3] was “similar”, the “relative mRNA ZYG11B, epidermal layer, vs RA-treated samples” value [3] was “lower” and the “relative mRNA p16, dermal layer, vs RA-treated samples” value [3] was “lower”. For the same sequence, the “relative mRNA p16, epidermal layer, vs RA-treated samples” value [3] was “lower” and the “mean of histology scores (maximum 28)” value [4] was 23.44.

For ETAKHWLKGI [Peptide 14, ETAKHWLKGI], the “cell number after UVB” value [5] was “did not significantly alter cell number”, the “cell proliferation vs untreated control” value [6] was “No significant differences” and the “cell toxicity to PBMCs” value [7] was “nor any detectable cell toxicity”. The “cell viability vs untreated control PBMCs” value [7] was “did not result in lower cell viabilities”, the “toxicity to C. elegans (worm movement)” value [8] was “not toxic” and the “cell toxicity to U-937 macrophages” value [9] was “nor any detectable cell toxicity”. The “cell viability vs untreated control U-937 macrophages” value [9] was “did not result in lower cell viabilities”.
